Results from PubChem BioAssay AID256 (DTP/NCI, 2004).
“And” between values parts separate entries of the source, which are not always exact repeats. Identical values can stand only once. Toxic doses and inconclusive results are not listed.

Tested on: CD2F1 mice, L1210 leukemia ip, survival T/C
Assay: NCI In Vivo Anticancer Drug Screen. Data for tumor model L1210 Leukemia (intraperitoneal) in CD2F1 (CDF1) mice
Conditions: higher = longer survival
Summary of the method: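 Mice carrying a transplanted tumor received test compound or vehicle alone. The value is the measurement in the treated group divided by that in the vehicle-treated control group.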

[1] = endpoint: mean survival time, dose: 100.0 mg/kg/injection, schedule: Q04DX003 (ip), vehicle: saline with Tween-80
[2] = endpoint: mean survival time, dose: 200.0 mg/kg/injection, schedule: Q04DX003 (ip), vehicle: saline with Tween-80
[3] = endpoint: mean survival time, dose: 100.0 mg/kg/injection, schedule: Q01DX009 (ip), vehicle: saline with Tween-80
[4] = endpoint: mean survival time, dose: 200.0 mg/kg/injection, schedule: Q01DX009 (ip), vehicle: saline with Tween-80
[5] = endpoint: mean survival time, dose: 100.0 mg/kg/injection, schedule: Q01DX001 (ip), vehicle: saline
[6] = endpoint: mean survival time, dose: 100.0 mg/kg/injection, schedule: Q01DX009 (ip), vehicle: saline
[7] = endpoint: mean survival time, dose: 200.0 mg/kg/injection, schedule: Q01DX001 (ip), vehicle: saline
[8] = endpoint: mean survival time, dose: 200.0 mg/kg/injection, schedule: Q01DX009 (ip), vehicle: saline
[9] = endpoint: mean survival time, dose: 400.0 mg/kg/injection, schedule: Q01DX001 (ip), vehicle: saline
[10] = endpoint: mean survival time, dose: 400.0 mg/kg/injection, schedule: Q01DX009 (ip), vehicle: saline

SMILES: O=S(=O)(O)c1cc2cc(S(=O)(=O)O)c(O)cc2cc1O.[NH-]C1CCCCC1[NH-].[Pt+2]
- T/C (endpoint: median survival time, dose: 3.12 mg/kg/injection, schedule: Q04DX003 (ip), vehicle: saline): 114 % of control and 118 % of control
- T/C (endpoint: median survival time, dose: 6.25 mg/kg/injection, schedule: Q04DX003 (ip), vehicle: saline): 118 % of control and 110 % of control
- T/C (endpoint: median survival time, dose: 12.5 mg/kg/injection, schedule: Q04DX003 (ip), vehicle: saline): 113 % of control and 112 % of control
- T/C (endpoint: median survival time, dose: 50.0 mg/kg/injection, schedule: Q04DX003 (ip), vehicle: saline): 158 % of control
- T/C (endpoint: median survival time, dose: 100.0 mg/kg/injection, schedule: Q04DX003 (ip), vehicle: saline): 154 % of control and 207 % of control
- T/C (endpoint: median survival time, dose: 200.0 mg/kg/injection, schedule: Q04DX003 (ip), vehicle: saline): 229 % of control and 365 % of control

SMILES: CCN(C(=O)CCl)c1ccccc1C
- T/C [1]: 92 % of control
- T/C [2]: 89 % of control

SMILES: CCOC(=O)c1cnn(CCO)c1N
- T/C (endpoint: mean survival time, dose: 50.0 mg/kg/injection, schedule: Q04DX003 (ip), vehicle: water): 100 % of control
- T/C (endpoint: mean survival time, dose: 100.0 mg/kg/injection, schedule: Q04DX003 (ip), vehicle: water): 97 % of control
- T/C (endpoint: mean survival time, dose: 200.0 mg/kg/injection, schedule: Q04DX003 (ip), vehicle: water): 101 % of control
- T/C (endpoint: mean survival time, dose: 400.0 mg/kg/injection, schedule: Q04DX003 (ip), vehicle: water): 103 % of control and 107 % of control
- T/C (endpoint: mean survival time, dose: 600.0 mg/kg/injection, schedule: Q04DX003 (ip), vehicle: water): 101 % of control
- T/C (endpoint: mean survival time, dose: 800.0 mg/kg/injection, schedule: Q04DX003 (ip), vehicle: water): 105 % of control

SMILES: CC(C)(C)C1COP(=S)(c2ccccc2)OC1 (centres undefined)
- T/C (endpoint: mean survival time, dose: 25.0 mg/kg/injection, schedule: Q04DX003 (ip), vehicle: Klucel (hydroxypropylcellulose) (HPC)): 94 % of control and 103 % of control
- T/C (endpoint: mean survival time, dose: 50.0 mg/kg/injection, schedule: Q04DX003 (ip), vehicle: Klucel (hydroxypropylcellulose) (HPC)): 103 % of control and 97 % of control
- T/C (endpoint: mean survival time, dose: 100.0 mg/kg/injection, schedule: Q04DX003 (ip), vehicle: Klucel (hydroxypropylcellulose) (HPC)): 97 % of control and 102 % of control

SMILES: Nc1nc(N)c(-c2ccc(Cl)cc2)c(CBr)n1
- T/C (endpoint: mean survival time, dose: 6.25 mg/kg/injection, schedule: Q01DX001 (ip), vehicle: saline): 95 % of control
- T/C (endpoint: mean survival time, dose: 12.5 mg/kg/injection, schedule: Q01DX001 (ip), vehicle: saline): 98 % of control
- T/C (endpoint: mean survival time, dose: 25.0 mg/kg/injection, schedule: Q01DX001 (ip), vehicle: saline with Tween-80): 106 % of control
- T/C (endpoint: mean survival time, dose: 25.0 mg/kg/injection, schedule: Q01DX001 (ip), vehicle: saline): 98 % of control
- T/C (endpoint: mean survival time, dose: 50.0 mg/kg/injection, schedule: Q01DX001 (ip), vehicle: saline with Tween-80): 95 % of control
- T/C (endpoint: mean survival time, dose: 100.0 mg/kg/injection, schedule: Q01DX001 (ip), vehicle: saline with Tween-80): 102 % of control and 110 % of control

SMILES: COc1cc2c(cc1OC)C(N)CCC2 (centres undefined)
- T/C (endpoint: mean survival time, dose: 12.5 mg/kg/injection, schedule: Q01DX009 (ip), vehicle: water): 97 % of control
- T/C (endpoint: mean survival time, dose: 25.0 mg/kg/injection, schedule: Q01DX009 (ip), vehicle: water): 103 % of control
- T/C (endpoint: mean survival time, dose: 50.0 mg/kg/injection, schedule: Q01DX009 (ip), vehicle: water): 98 % of control
- T/C (endpoint: mean survival time, dose: 100.0 mg/kg/injection, schedule: Q01DX009 (ip), vehicle: water): 105 % of control

SMILES: CCN(CC)S(=O)(=O)c1ccccc1
- T/C (endpoint: mean survival time, dose: 50.0 mg/kg/injection, schedule: Q01DX009 (ip), vehicle: Klucel (hydroxypropylcellulose) (HPC)): 93 % of control
- T/C (endpoint: mean survival time, dose: 100.0 mg/kg/injection, schedule: Q01DX009 (ip), vehicle: Klucel (hydroxypropylcellulose) (HPC)): 104 % of control
- T/C (endpoint: mean survival time, dose: 200.0 mg/kg/injection, schedule: Q01DX009 (ip), vehicle: Klucel (hydroxypropylcellulose) (HPC)): 96 % of control

SMILES: COC(C)C(O)(c1ccccc1)c1ccccc1 (centres undefined)
- T/C (endpoint: mean survival time, dose: 50.0 mg/kg/injection, schedule: Q01DX009 (ip), vehicle: saline with Tween-80): 101 % of control
- T/C [3]: 101 % of control
- T/C [4]: 96 % of control

SMILES: OCC1OC(Oc2ccc(O)cc2)C(O)C(O)C1O (centres undefined)
- T/C (endpoint: mean survival time, dose: 50.0 mg/kg/injection, schedule: Q01DX009 (ip), vehicle: saline): 103 % of control
- T/C [5]: 101 % of control
- T/C [6]: 103 % of control
- T/C [7]: 117 % of control
- T/C [8]: 95 % of control
- T/C [9]: 101 % of control
- T/C [10]: 100 % of control

SMILES: CCC(O)C[As](=O)(O)c1ccc(Cl)cc1 (centres undefined)
- T/C (endpoint: mean survival time, dose: 0.38 mg/kg/injection, schedule: Q01DX009 (ip), vehicle: water): 98 % of control
- T/C (endpoint: mean survival time, dose: 0.78 mg/kg/injection, schedule: Q01DX009 (ip), vehicle: water): 98 % of control
- T/C (endpoint: mean survival time, dose: 1.5 mg/kg/injection, schedule: Q01DX009 (ip), vehicle: water): 94 % of control

SMILES: N#CC(C#N)=NNc1ccc(S(=O)(=O)O)cc1
- T/C [6]: 93 % of control
- T/C [8]: 95 % of control
- T/C [10]: 95 % of control

SMILES: O=C1C2C3CC4C5C3C1C5C1(OCCO1)C42 (centres undefined)
- T/C (endpoint: mean survival time, dose: 25.0 mg/kg/injection, schedule: Q04DX002 (ip), vehicle: saline with Tween-80): 107 % of control
- T/C (endpoint: mean survival time, dose: 50.0 mg/kg/injection, schedule: Q04DX002 (ip), vehicle: saline with Tween-80): 107 % of control
- T/C (endpoint: mean survival time, dose: 100.0 mg/kg/injection, schedule: Q04DX002 (ip), vehicle: saline with Tween-80): 100 % of control
- T/C (endpoint: mean survival time, dose: 200.0 mg/kg/injection, schedule: Q04DX002 (ip), vehicle: saline with Tween-80): 107 % of control

SMILES: CNCCOC(=O)/C=C/c1ccccc1
- T/C [6]: 98 % of control
- T/C [8]: 95 % of control
- T/C [10]: 95 % of control

SMILES: CO[C@@]12[C@@H]3N[C@@H]3CN1C1=C(C(=O)C(Nc3cccc(O)c3)=C(C)C1=O)[C@@H]2COC(N)=O
- T/C (endpoint: median survival time, dose: 1.5 mg/kg/injection, schedule: Q01DX001 (ip), vehicle: water): 113 % of control
- T/C (endpoint: median survival time, dose: 3.0 mg/kg/injection, schedule: Q01DX001 (ip), vehicle: water): 119 % of control
- T/C (endpoint: median survival time, dose: 12.0 mg/kg/injection, schedule: Q01DX001 (ip), vehicle: water): 122 % of control

SMILES: CCOC(=O)c1c(C)c2c(n1C)CC/C(=C\O)C2=O
- T/C (endpoint: mean survival time, dose: 25.0 mg/kg/injection, schedule: Q04DX002 (ip), vehicle: other): 100 % of control
- T/C (endpoint: mean survival time, dose: 50.0 mg/kg/injection, schedule: Q04DX002 (ip), vehicle: other): 96 % of control
- T/C (endpoint: mean survival time, dose: 100.0 mg/kg/injection, schedule: Q04DX002 (ip), vehicle: other): 88 % of control and 96 % of control

SMILES: COC1=CC=C2[C@@H]3Cc4ccc(OC)c5c4[C@]2(CCN3CCO)C1O5 (some centres undefined)
- T/C (endpoint: mean survival time, dose: 25.0 mg/kg/injection, schedule: Q04DX003 (ip), vehicle: DMSO): 94 % of control
- T/C (endpoint: mean survival time, dose: 50.0 mg/kg/injection, schedule: Q04DX003 (ip), vehicle: DMSO): 96 % of control
- T/C (endpoint: mean survival time, dose: 100.0 mg/kg/injection, schedule: Q04DX003 (ip), vehicle: DMSO): 94 % of control
- T/C (endpoint: mean survival time, dose: 200.0 mg/kg/injection, schedule: Q04DX003 (ip), vehicle: DMSO): 91 % of control
- T/C (endpoint: mean survival time, dose: 400.0 mg/kg/injection, schedule: Q04DX003 (ip), vehicle: DMSO): 105 % of control

SMILES: CCOC(=O)NC(O)C(Cl)(Cl)Cl (centres undefined)
- T/C [3]: 97 % of control
- T/C [4]: 106 % of control
- T/C (endpoint: mean survival time, dose: 400.0 mg/kg/injection, schedule: Q01DX009 (ip), vehicle: saline with Tween-80): 112 % of control

SMILES: O=C(Nc1ncnc2c1[nH]c(=O)n2C1OC(CO)C2OC21)c1ccccc1 (centres undefined)
- T/C (endpoint: mean survival time, dose: 12.5 mg/kg/injection, schedule: Q01DX005 (ip), vehicle: distilled water + Tween-80): 92 % of control
- T/C (endpoint: mean survival time, dose: 25.0 mg/kg/injection, schedule: Q01DX005 (ip), vehicle: distilled water + Tween-80): 100 % of control
- T/C (endpoint: mean survival time, dose: 50.0 mg/kg/injection, schedule: Q01DX005 (ip), vehicle: distilled water + Tween-80): 95 % of control
- T/C (endpoint: mean survival time, dose: 100.0 mg/kg/injection, schedule: Q01DX005 (ip), vehicle: distilled water + Tween-80): 90 % of control
- T/C (endpoint: mean survival time, dose: 200.0 mg/kg/injection, schedule: Q01DX005 (ip), vehicle: distilled water + Tween-80): 93 % of control

SMILES: ClC1C(Cl)(Cl)C1(Cl)Cl
- T/C (endpoint: mean survival time, dose: 37.5 mg/kg/injection, schedule: Q01DX001 (ip), vehicle: saline): 100 % of control
- T/C (endpoint: mean survival time, dose: 75.0 mg/kg/injection, schedule: Q01DX001 (ip), vehicle: saline): 102 % of control
- T/C (endpoint: mean survival time, dose: 150.0 mg/kg/injection, schedule: Q01DX001 (ip), vehicle: saline): 95 % of control

SMILES: COC1C(O)C(C)OC(OC2CC(O)C3(C)C(CCC4C3CCC3(C)C(C5=CC(=O)OC5)CCC43O)C2)C1O (centres undefined) (tested in a mixture with another compound)
- T/C (endpoint: mean survival time, dose: 50.0 mg/kg/injection, schedule: Q01DX001 (ip), vehicle: saline sonified): 87 % of control

SMILES: O=C(c1ccc2c(c1)OCO2)c1ccc[nH]1
- T/C [1]: 94 % of control
- T/C [2]: 91 % of control

SMILES: O=S(=O)(/C=C\c1ccccc1)Oc1ccccc1
- T/C [5]: 100 % of control
- T/C (endpoint: mean survival time, dose: 100.0 mg/kg/injection, schedule: Q04DX003 (ip), vehicle: saline): 96 % of control
- T/C [7]: 100 % of control
- T/C (endpoint: mean survival time, dose: 200.0 mg/kg/injection, schedule: Q04DX003 (ip), vehicle: saline): 95 % of control
- T/C [9]: 93 % of control
- T/C (endpoint: mean survival time, dose: 400.0 mg/kg/injection, schedule: Q04DX003 (ip), vehicle: saline): 90 % of control
